According to US9181288B2, “Azepane derivatives and methods of treating hepatitis B infections” (Novira Therapeutics, Inc., priority 2014, dated 2015):

Columns and labels:
[1] = molecular target: HBV C150Bo capsid protein (mutant C150 HBV core protein labeled with BODIPY-FL) (Hepatitis B virus genotype D subtype adw, UniProt P03147, C107A/C48A/C61A/R150C); assay: HBV assembly assay (fluorescence quenching in vitro capsid assembly); format: biochemical; settings: at about 10 μM; 50 mM Hepes pH 7.5, 150 mM NaCl, 1 hour room temperature
[2] = system: HBV replication in HepG2-2.2.15 cells; assay: Inhibition of HBV replication dot-blot assay; format: cell-based; settings: Hepatitis B virus, 144 h, six days, reduction in HBV DNA levels
Method: Compounds active in the HBV assembly assay are tested for their activity and toxicity in cellular assay. In the first anti-viral assay, the ability of compounds to inhibit HBV replication in an HBV-producing hepatoma cell line using the dot-blot method is evaluated.
Briefly, confluent monolayers of HepG2-2.2.15 cells are incubated with complete medium containing various concentrations of a test compound. Three days later, the culture medium is replaced with fresh medium containing the appropriately diluted test compound. Six days following the initial administration of the test compound, the cell culture supernatant is collected, and cell lysis is performed. The samples are applied onto Nylos membranes and DNA is immobilized to the membrane by UV cross-linking. After pre-hybridization, the HBV probe is added and the hybridization is performed overnight. The membranes are exposed to the Kodak films; antiviral activity is calculated from the reduction in HBV DNA levels (EC50). The EC50 for antiviral activity is calculated from the dose response curves of active compounds. Assay performance over time is monitored by the use of the standard positive control compounds ETV, BAY 41-4109, and HAP-1.
Selected compounds were tested for their activity and toxicity in cellular assay. In the first anti-viral assay, the ability of compounds to inhibit HBV replication in an HBV-producing hepatoma cell line using the dot-blot method was evaluated.
Confluent monolayers of HepG2-2.2.15 cells were incubated with complete medium containing various concentrations of a test compound. Three days later, the culture medium was replaced with fresh medium containing the appropriately diluted test compound. Six days following the initial administration of the test compound, the cell culture supernatant was collected, and cell lysis was performed. The samples were applied onto Nylos membranes and DNA was immobilized to the membrane by UV cross-linking. After pre-hybridization, the HBV probe was added and the hybridization was performed overnight. The membranes were exposed to the Kodak films; antiviral activity was calculated from the reduction in HBV DNA levels (EC50). The EC50 for antiviral activity was calculated from the dose response curves of active compounds. Assay performance over time was monitored by the use of the standard positive control compounds ETV, BAY 41-4109, and HAP-1.

Chain of HBV C150Bo capsid protein (mutant C150 HBV core protein labeled with BODIPY-FL) (P03147 1-150 C48A/C61A/C107A/R150C): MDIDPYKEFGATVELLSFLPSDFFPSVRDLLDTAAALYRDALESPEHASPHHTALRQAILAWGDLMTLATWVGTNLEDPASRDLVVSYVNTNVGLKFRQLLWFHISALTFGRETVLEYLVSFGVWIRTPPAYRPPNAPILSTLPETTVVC

Row | Compound | Activity (HBV assembly assay) [1] | inhibition at 10 µM [2] [%]
1 | O=C(Nc1cc(F)c(F)c(F)c1)c1ccc(CF)c(S(=O)(=O)N2CCOCC(O)(C3CC3)C2)c1 (stereo not shown) [Compound 2505] | + (‘+’ indicates >50% activity at about 10 μM) | > 50
2 | O=C(Nc1ccc(F)c(Cl)c1)c1ccc(CF)c(S(=O)(=O)N2CCOCC(O)C2)c1 (stereo not shown) [Compound 1983] | + (‘+’ indicates >50% activity at about 10 μM) | > 50
3 | CC1(O)CCCCN(S(=O)(=O)c2cc(C(=O)Nc3cc(F)c(F)c(F)c3)ccc2F)C1 (stereo not shown) [Compound 1892] | + (‘+’ indicates >50% activity at about 10 μM) | > 50
4 | O=C(Nc1ccc(F)c(Cl)c1)c1ccc(F)c(S(=O)(=O)N2CCC[C@H](O)CC2)c1 [Compound 1766_E2] | + (‘+’ indicates >50% activity at about 10 μM) | > 50
5 | O=C(Nc1ccc(F)c(Cl)c1)c1ccc(F)c(S(=O)(=O)N2CCCC(F)[C@H](O)C2)c1 (stereo partly shown) [Compound 1822_D2] | + (‘+’ indicates >50% activity at about 10 μM) | > 50
6 | O=C(Nc1ccc(F)c(Cl)c1)c1ccc(F)c(S(=O)(=O)N2CCOCC(O)C2)c1 (stereo not shown) [Compound 1893] | + (‘+’ indicates >50% activity at about 10 μM) | > 50
7 | O=C(Nc1cc(F)c(F)c(F)c1)c1ccc(CF)c(S(=O)(=O)N2CCOCC(O)C2)c1 (stereo not shown) [Compound 1981] | + (‘+’ indicates >50% activity at about 10 μM) | > 50
8 | COc1ccc(C(=O)Nc2ccc(F)c(Cl)c2)cc1S(=O)(=O)N1CCOCC(O)C1 (stereo not shown) [Compound 1980] | + (‘+’ indicates >50% activity at about 10 μM) | > 50
9 | O=C(Nc1ccc(F)c(Cl)c1)c1ccc(CF)c(S(=O)(=O)N2CCCC(O)CC2)c1 (stereo not shown) [Compound 1916] | + (‘+’ indicates >50% activity at about 10 μM) | –
10 | COc1ccc(C(=O)Nc2ccc(F)c(Cl)c2)cc1S(=O)(=O)N1CCCC(O)C(F)C1 (stereo not shown) [Compound 2114_D1] | + (‘+’ indicates >50% activity at about 10 μM) | > 50
11 | O=C(Nc1ccc(F)c(Cl)c1)c1ccc(F)c(S(=O)(=O)N2CCCC[C@@H](O)C2)c1 [Compound 1763_E1] | + (‘+’ indicates >50% activity at about 10 μM) | > 50
12 | O=C(Nc1ccc(F)c(Cl)c1)c1ccc(CCF)c(S(=O)(=O)N2CCCC(O)CC2)c1 (stereo not shown) [Compound 2205, N-(3-chloro-4-fluoro-phenyl)-4-(2-fluoroethyl)-3-(4-hydroxyazepan-1-yl)sulfonyl-benzamide] | + (‘+’ indicates >50% activity at about 10 μM) | > 50
13 | O=C(Nc1cc(F)c(F)c(F)c1)c1ccc(F)c(S(=O)(=O)N2CC(O)CCC(F)C2)c1 (stereo not shown) [Compound 1826_D2] | + (‘+’ indicates >50% activity at about 10 μM) | > 50
14 | O=C(Nc1cc(F)c(F)c(F)c1)c1ccc(F)c(S(=O)(=O)N2CCCC(O)CC2)c1 (stereo not shown) [Compound 1765] | + (‘+’ indicates >50% activity at about 10 μM) | > 50
15 | O=C(Nc1ccc(F)c(Cl)c1)c1ccc(F)c(S(=O)(=O)N2CCC[C@@H](O)CC2)c1 [Compound 1766_E1] | + (‘+’ indicates >50% activity at about 10 μM) | > 50
16 | O=C(Nc1cc(F)c(F)c(F)c1)c1ccc(F)c(S(=O)(=O)N2CCOCC(O)C2)c1 (stereo not shown) [Compound 1895] | + (‘+’ indicates >50% activity at about 10 μM) | > 50
17 | O=C(Nc1cc(F)c(F)c(F)c1)c1ccc(CF)c(S(=O)(=O)N2CC(O)CC3CC3C2)c1 (stereo not shown) [Compound 2550] | + (‘+’ indicates >50% activity at about 10 μM) | > 50
18 | O=C(Nc1cc(F)c(F)c(F)c1)c1ccc(F)c(S(=O)(=O)N2CCC[C@@H](O)C(F)C2)c1 (stereo partly shown) [Compound 1829_D1] | + (‘+’ indicates >50% activity at about 10 μM) | > 50

Row | Compound | Activity (HBV assembly assay) [1] | inhibition at 10 µM [2] [%]
19 | O=C(Nc1ccc(F)c(F)c1)c1ccc(F)c(S(=O)(=O)N2CCCC(F)C(O)C2)c1 (stereo not shown) [Compound 1821] | + (‘+’ indicates >50% activity at about 10 μM) | > 50
20 | O=C(Nc1ccc(F)c(F)c1)c1ccc(F)c(S(=O)(=O)N2CC(O)CC3CC3C2)c1 (stereo not shown) [Compound 2547] | + (‘+’ indicates >50% activity at about 10 μM) | > 50
21 | CC(=O)O[C@@H]1CC[C@H](OC(C)=O)CN(S(=O)(=O)c2cc(C(=O)Nc3ccc(F)c(Cl)c3)ccc2F)C1 [Compound 2626_D2] | + (‘+’ indicates >50% activity at about 10 μM) | > 50
22 | O=C(Nc1ccc(F)c(Cl)c1)c1ccc(F)c(S(=O)(=O)N2C[C@H](O)CC[C@@H](O)C2)c1 [Compound 2433_D1] | + (‘+’ indicates >50% activity at about 10 μM) | > 50
23 | O=C(Nc1ccc(F)c(Cl)c1)c1ccc(F)c(S(=O)(=O)N2CCCC(O)C(O)C2)c1 (stereo not shown) [Compound 1909] | – | > 50
24 | O=C(Nc1cc(F)c(F)c(F)c1)c1ccc(F)c(S(=O)(=O)N2C[C@H](O)CC[C@H](O)C2)c1 [Compound 2617_D2] | + (‘+’ indicates >50% activity at about 10 μM) | > 50
25 | O=C(Nc1cc(F)c(F)c(F)c1)c1ccc(F)c(S(=O)(=O)N2CCCC(F)C(O)C2)c1 (stereo not shown) [Compound 1820] | + (‘+’ indicates >50% activity at about 10 μM) | > 50
26 | O=C(Nc1ccc(F)c(Cl)c1)c1ccc(F)c(S(=O)(=O)N2CCCC(F)[C@@H](O)C2)c1 (stereo partly shown) [Compound 1822_D1] | + (‘+’ indicates >50% activity at about 10 μM) | > 50
27 | O=C(Nc1ccc(F)c(Cl)c1)c1ccc(F)c(S(=O)(=O)N2CCOCC(O)(C3CC3)C2)c1 (stereo not shown) [Compound 1989] | + (‘+’ indicates >50% activity at about 10 μM) | > 50
28 | CC1(O)CCCN(S(=O)(=O)c2cc(C(=O)Nc3cc(F)c(F)c(F)c3)ccc2F)CC1 (stereo not shown) [Compound 1944] | + (‘+’ indicates >50% activity at about 10 μM) | > 50
29 | Cc1ccc(C(=O)Nc2cc(F)c(F)c(F)c2)cc1S(=O)(=O)N1CCCCC(O)C1 (stereo not shown) [Compound 1915] | + (‘+’ indicates >50% activity at about 10 μM) | > 50
30 | O=C(Nc1ccc(F)c(F)c1)c1ccc(CF)c(S(=O)(=O)N2CCCC(O)CC2)c1 (stereo not shown) [Compound 1917] | + (‘+’ indicates >50% activity at about 10 μM) | > 50
31 | O=C(Nc1cc(F)c(F)c(F)c1)c1ccc(CCF)c(S(=O)(=O)N2CCCC(O)CC2)c1 (stereo not shown) [Compound 2206] | + (‘+’ indicates >50% activity at about 10 μM) | > 50
32 | O=C(Nc1cc(F)c(F)c(F)c1)c1ccc(F)c(S(=O)(=O)N2CCC[C@H](O)C(F)C2)c1 (stereo partly shown) [Compound 1829_D2] | + (‘+’ indicates >50% activity at about 10 μM) | > 50
33 | O=C(Nc1ccc(F)c(F)c1)c1ccc(F)c(S(=O)(=O)N2CCOCC(O)C2)c1 (stereo not shown) [Compound 1894] | + (‘+’ indicates >50% activity at about 10 μM) | > 50
34 | O=C(Nc1cc(F)c(F)c(F)c1)c1ccc(F)c(S(=O)(=O)N2CCOCC(O)(C3CC3)C2)c1 (stereo not shown) [Compound 1987] | + (‘+’ indicates >50% activity at about 10 μM) | > 50
35 | COc1ccc(C(=O)Nc2ccc(F)c(Cl)c2)cc1S(=O)(=O)N1CCCC(O)C(F)C1 (stereo not shown) [Compound 2114_D2] | + (‘+’ indicates >50% activity at about 10 μM) | –
